Reference: the supplement of paper PMC10307832

Legend:
Assay in all cases: relative viability (nuclei count vs DMSO), 5 days (fraction); higher = more cells survive
[1] = compound: COC1=CC=C(C=C1)CN2C=CC3=C2C=C(C=C3)C(=O)NO + CC(=O)Nc1cccc(-n2c(=O)n(C3CC3)c(=O)c3c(Nc4ccc(I)cc4F)n(C)c(=O)c(C)c32)c1 [Trametinib] (partner 0.02 µM)
In short: (§1)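 After 5 days of treatment, lung cancer cells in 1536-well plates were fixed and stained in a single step (final 0.05% Triton X-100, 1% formaldehyde, 1 ug/ml Hoechst) and their nuclei counted on 4× images. Treatment had been applied by pin tool the day after seeding as one drug alone or as a fixed anchor-drug dose with five library-drug doses (not always all listed) in √10 steps. Relative viability is the nuclei count of treated wells divided by that of vehicle wells, and values are medians of duplicate plates.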

[2] = compound: COC1=CC=C(C=C1)CN2C=CC3=C2C=C(C=C3)C(=O)NO + Cc1nc(Nc2ncc(C(=O)Nc3c(C)cccc3Cl)s2)cc(N2CCN(CCO)CC2)n1 [Dasatinib] (partner 0.075 µM)
In short: as §1

Veliparib + OSI-027 = compound: C[C@]1(c2nc3c(C(N)=O)cccc3[nH]2)CCCN1 [Veliparib] + COc1cccc2cc(-c3nc([C@H]4CC[C@H](C(=O)O)CC4)n4ncnc(N)c34)[nH]c12 [OSI-027] (partner 0.5 µM)
In short: as §1

Veliparib + Pictilisib = compound: C[C@]1(c2nc3c(C(N)=O)cccc3[nH]2)CCCN1 [Veliparib] + CS(=O)(=O)N1CCN(Cc2cc3nc(-c4cccc5[nH]ncc45)nc(N4CCOCC4)c3s2)CC1 [Pictilisib] (partner 1 µM)
In short: as §1

Q: For SW 1573, which relative viability ([1]; first compound 0.253 µM) is on record?
A: The relative viability was 0.539.

Q: What about the relative viability ([1]; first compound 0.8 µM) of the same cell line?
A: The relative viability was 0.678.

Q: And the relative viability ([1]; first compound 2.53 µM)?
A: Its relative viability is 0.562.

Q: And the relative viability ([1]; first compound 8 µM)?
A: The relative viability was 0.37.

Q: What about the relative viability ([2]; first compound 0.253 µM) of the same cell line?
A: Its relative viability is 0.545.

Q: And the relative viability ([2]; first compound 0.8 µM)?
A: Its relative viability is 0.702.

Q: And the relative viability ([2]; first compound 2.53 µM)?
A: Its relative viability is 0.561.

Q: And the relative viability ([2]; first compound 8 µM)?
A: The relative viability was 0.322.

Q: What about the relative viability (Veliparib + OSI-027; first compound 0.06325 µM) of the same cell line?
A: The relative viability was 0.558.

Q: And the relative viability (Veliparib + OSI-027; first compound 0.2 µM)?
A: Its relative viability is 0.597.

Q: And the relative viability (Veliparib + OSI-027; first compound 0.6325 µM)?
A: Its relative viability is 0.521.

Q: And the relative viability (Veliparib + OSI-027; first compound 2 µM)?
A: The relative viability was 0.675.

Q: And the relative viability (Veliparib + Pictilisib; first compound 0.02 µM)?
A: The relative viability was 0.459.

Q: And the relative viability (Veliparib + Pictilisib; first compound 0.06325 µM)?
A: The relative viability was 0.587.

Q: What about the relative viability (Veliparib + Pictilisib; first compound 0.2 µM) of the same cell line?
A: Its relative viability is 0.476.

Q: And the relative viability (Veliparib + Pictilisib; first compound 0.6325 µM)?
A: The relative viability was 0.497.

Q: And the relative viability (Veliparib + Pictilisib; first compound 2 µM)?
A: The relative viability was 0.418.
